The structures appear in SMILES notation. Activity calls are given as the source filed them. The rule behind the calls is not given here.

Sequence of Ubiquitin carboxyl-terminal hydrolase 10 (Homo sapiens) (Q14694 whole entry, looked up): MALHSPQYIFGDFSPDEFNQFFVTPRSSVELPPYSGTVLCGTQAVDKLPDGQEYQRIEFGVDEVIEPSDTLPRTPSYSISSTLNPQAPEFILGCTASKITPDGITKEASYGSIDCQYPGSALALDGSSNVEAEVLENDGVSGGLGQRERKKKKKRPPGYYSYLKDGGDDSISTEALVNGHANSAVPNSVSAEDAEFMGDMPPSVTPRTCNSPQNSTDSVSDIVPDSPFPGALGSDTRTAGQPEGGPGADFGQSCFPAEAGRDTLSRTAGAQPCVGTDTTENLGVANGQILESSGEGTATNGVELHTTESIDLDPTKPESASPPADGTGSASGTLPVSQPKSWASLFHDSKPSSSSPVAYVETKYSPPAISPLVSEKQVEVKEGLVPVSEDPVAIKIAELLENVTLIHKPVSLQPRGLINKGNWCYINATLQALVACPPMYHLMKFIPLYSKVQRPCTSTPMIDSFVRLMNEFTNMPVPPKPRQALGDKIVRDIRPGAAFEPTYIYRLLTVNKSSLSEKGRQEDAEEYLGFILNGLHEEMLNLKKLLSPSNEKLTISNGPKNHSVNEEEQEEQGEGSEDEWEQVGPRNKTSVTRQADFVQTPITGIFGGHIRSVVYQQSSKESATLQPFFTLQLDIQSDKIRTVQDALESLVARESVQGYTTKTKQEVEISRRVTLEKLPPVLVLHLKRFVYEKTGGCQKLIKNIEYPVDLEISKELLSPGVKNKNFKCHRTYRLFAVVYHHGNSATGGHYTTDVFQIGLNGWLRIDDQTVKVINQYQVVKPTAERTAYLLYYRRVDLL

The assay addresses Ubiquitin carboxyl-terminal hydrolase 10 (Homo sapiens) (UniProt Q14694). Kind of assay: primary hit verification, biochemical, ubiquitin-specific protease 10 deubiquitylase inhibitors, concentration-effect titration (AID 1645863).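 Note: potency values describe inhibition of USP10 cleavage of a fluorogenic ubiquitin substrate.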 As to conditions: USP10 deubiquitinase enzymatic assay.
A word on the IC50: it is the concentration that inhibits the measured activity by half. On to `Cc1ccc(CNCc2cc3c(-c4ccc(F)cc4)nn(-c4ccccc4)c3[nH]c2=O)cc1`, for which the IC50 is > 40 µM (inactive).

`O=C(Cn1nc2c3c4c(sc3ncn2c1=O)CCCCC4)Nc1ccc(Cl)cc1F`: the IC50 is 10.9 µM. To `Cc1c(-c2nn3c(-c4ccco4)nnc3s2)cccc1[N+](=O)[O-]` belongs > 40 µM (inactive); to `Cc1cccc(NC(=O)Nc2ccc(C)n(CC(=O)Nc3ccc(C)c(C)c3)c2=O)c1`, > 40 µM (inactive). With `CC(C)=CCCC1(C)C=Cc2c(O)c3c(c(CC=C(C)C)c2O1)OC12C(=CC4CC1C(C)(C)OC2(C/C=C(/C)C(=O)O)C4=O)C3=O` (configuration not stated) the figure was 9.59 µM.

On to `O=C(c1[nH]nc2c1COc1ccccc1-2)N1CCN(c2ccccn2)CC1`, for which the IC50 was > 40 µM (inactive). As to `COc1ccc(NC(=O)Cn2c(=O)n(CCCCC(=O)NCc3ccco3)c(=O)c3ccccc32)cc1Cl`, the IC50 was > 40 µM (inactive).

With `COc1cc(OC)c(NC(=O)c2cc(-c3ccccn3)n[nH]2)cc1Cl`, the half-inhibitory concentration (IC50) was 28.9 µM. With `Cc1ccc(NC(=O)COc2ccccc2/C=C2/NC(=O)N(Cc3ccc(F)cc3)C2=O)cc1` the figure was > 40 µM (inactive); with `CCc1nnc(-c2ccc3ccn(CC(=O)N4CCN(c5ccccn5)CC4)c3c2)o1`, > 40 µM (inactive); with `Cc1cc(C)c2nc3c(cc2c1)CN(Cc1ccco1)C(=O)O3`, > 40 µM (inactive).

For the molecule `COC(=O)c1ccc2c(=O)n(CCCCCC(=O)NCCc3ccc(S(N)(=O)=O)cc3)c(=O)[nH]c2c1`, the IC50 was 24.7 µM. To `O=C(Nc1ccccc1-c1nc2ccccc2[nH]1)c1sc2ccccc2c1Cl` belongs 9.23 µM; to `Cc1cccc(-n2ccnc(SCC(=O)Nc3ccc(Cl)cc3F)c2=O)c1`, 16.1 µM. To `Cc1ccc(C)c(NC(=O)Cn2cc(C(=O)C3CC3)c3ccccc32)c1` belongs 15.4 µM. With `FC(F)(F)c1cccc(Nc2nc(-c3ccccn3)nc3ccccc23)c1` the figure was > 40 µM (inactive); with `O=c1c(O)c(-c2ccc(O)c(O)c2)oc2cc(O)cc(O)c12`, 1.16 µM; with `CC1=CC(=O)C(C2=C(O)C(=O)C(C)=CC2=O)=C(O)C1=O`, 12 µM. As for `O=S1(=O)CCN(CC2CCCO2)c2c(Oc3ccccc3)nc(F)c(Cl)c21` (configuration not stated), the IC50 was > 40 µM (inactive). Turning to `Cc1cccc(NC(=O)c2noc3c2CCc2sccc2-3)n1`, the IC50 is > 40 µM (inactive). To `Cn1c(=O)[nH]c(=O)c2c1nc(N1CCc3ccccc3C1)n2CCSc1nnnn1-c1ccccc1` belongs > 40 µM (inactive); to `Cc1ccc(-c2cc(=O)n(CC(=O)Nc3ccc(C(C)C)cc3)cn2)cc1`, > 40 µM (inactive); to `CCCCOc1ccc(-c2cc3n(c(=N)c2C#N)CCc2cc4c(cc2-3)OCCCO4)cc1OC`, > 40 µM (inactive).

For the molecule `CC(C)(C)C(=O)C1C2C(=O)N(c3ccc4c(c3)OCO4)C(=O)C2C2c3ccccc3C=CN12` (configuration not stated), the IC50 was > 40 µM (inactive). With `O=C(Cc1ccc(-n2c(=O)c3ccccc3n(CC(=O)Nc3ccc(Cl)cc3Cl)c2=O)cc1)NCc1ccco1` the figure was 11.3 µM; with `O=C(Cn1c(=O)n(Cc2ccc3c(c2)OCO3)c(=O)c2cccnc21)Nc1ccc(F)cc1`, > 40 µM (inactive); with `Cc1occ2c1C(=O)c1c(O)ccc(O)c1C2`, 4.8 µM. With `O=C(Nc1ccccc1-c1nc(-c2ccccn2)no1)c1cc(Cl)ccc1Cl` the figure was > 40 µM (inactive); with `COc1ccc(-c2cc(C(=O)Nc3ccnn3Cc3ccccc3)no2)cc1`, > 40 µM (inactive); with `Cn1nc(Cl)c(Cl)c1Oc1ccc(S(=O)(=O)Nc2ccc(Oc3ccc(C(F)(F)F)cn3)c(Cl)c2)cc1`, 13 µM. With `O=C(Cn1c(=O)c2cccn2c2ccccc21)NCc1ccc(F)cc1` the figure was > 40 µM (inactive); with `COc1ccc(NC(=O)[C@H](C)NC(=O)c2cc3c(OC)cccc3[nH]2)cc1Cl`, 37.9 µM. `O=C(CCn1c(=O)c2sccc2n(Cc2ccc([N+](=O)[O-])cc2)c1=O)NCc1ccccc1`: the IC50 was > 40 µM (inactive). To `Cn1c(=O)c(-c2ccc(C(=O)NCc3cccc(Cl)c3)cc2)nc2cccnc21` belongs > 40 µM (inactive); to `COc1ccccc1C(=O)N1CCC[C@H](Cn2nnc(-c3cccnc3)n2)C1`, > 40 µM (inactive). With `CCn1cc2c(n1)c(=O)n(Cc1ccccc1)c(=O)n2CC(=O)Nc1ccc(C)cc1C` the figure was 12.1 µM; with `O=c1cc(Cc2ccccc2)nc2c(-c3ccccc3)c(COc3ccccc3)[nH]n12`, “inactive”. To `Cc1ccc(CNC(=O)c2cccc(N3C(=O)N4CCc5c([nH]c6ccccc56)[C@@]4(C)C3=O)c2)cc1` belongs > 40 µM (inactive); to `Nc1c(C(=O)NCc2ccc3c(c2)OCO3)nnn1Cc1ccc(Br)cc1F`, 18.4 µM; to `O=C(CSc1nc2c(cnn2-c2ccccc2)c(=O)[nH]1)Nc1ccc(Cl)cc1F`, > 40 µM (inactive). On to `Cc1ccc(Nc2nc3c(S(=O)(=O)c4ccccc4)nnn3c3ccccc23)c(C)c1`, for which the IC50 was > 40 µM (inactive). To `Cc1ccc(NC(=O)Nc2nnc(CC(=O)NCc3ccccc3)s2)c(Cl)c1` belongs > 40 µM (inactive). To `CS(=O)(=O)c1cccc(-c2nnc(NC(=O)c3ccc(Cc4ccccc4)cc3)o2)c1` belongs > 40 µM (inactive); to `O=C(c1ccncc1)N1CCN(CC2CC=CCC2)CC1` (configuration not stated), > 40 µM (inactive); to `COc1ccccc1/C=C/C(=O)NC(Cc1ccccc1)c1nc2ccccc2[nH]1` (configuration not stated), > 40 µM (inactive). To `O=C(C1=CSCCO1)N1CCc2ccccc2C1` belongs > 40 µM (inactive). Take `CC(NC(=O)c1ccccc1)c1nc2ccccc2n1CC(=O)Nc1ccc2c(c1)OCO2` (configuration not stated): the IC50 was 11.5 µM. To `Cc1cccc(NC(=O)CCCc2nnc3c(=O)n(-c4cccc(F)c4)ccn23)c1` belongs > 40 µM (inactive); to `Cc1noc(-c2cc(=O)n(CC(=O)Nc3ccccc3Cl)c3ccccc23)n1`, 14.4 µM. Consider `COc1cc2c(=O)n(CC3CCCO3)c(=O)n(CC(=O)c3ccc4c(c3)OCO4)c2cc1OC` (configuration not stated), for which the IC50 is 37.4 µM. With `COc1ccc(Cl)cc1NC(=O)COC(=O)c1cc2ccccc2oc1=O` the figure was 17.5 µM. In the case of `COc1ccc(C(=O)Nc2ccccc2C(=O)NC(Cc2ccc(O)cc2)C(=O)NNC(=O)c2ccccc2Cl)cc1` (configuration not stated), the IC50 was > 40 µM (inactive). To `Cc1ccc2cc(CNc3ccccc3)c(=O)n(CC(=O)Nc3ccccc3C)c2c1` belongs > 40 µM (inactive); to `COc1ccc(NC(=O)Cn2c(=O)n(CCC(=O)NCc3ccccc3)c(=O)c3sccc32)cc1Cl`, > 40 µM (inactive). With `Cc1cc(C)c(NC(=O)CSc2nc3nccnc3c(=O)n2Cc2ccccc2Cl)c(C)c1` the figure was > 40 µM (inactive).

Consider `COc1ccc(-c2n[nH]n3c2nc(=O)c2ccc(C(=O)NCc4ccco4)cc23)cc1`, for which the IC50 is > 40 µM (inactive). For the molecule `COc1ccc(NC(=O)Cn2c(=O)n(CCCC(=O)NCCc3ccc(OC)c(OC)c3)c(=O)c3ccccc32)cc1Cl`, the IC50 is > 40 µM (inactive).

As to `Cc1ccc(NC(=O)Cn2c(=O)n(CC(=O)NCCc3ccccc3)c(=O)c3sccc32)cc1C`, the IC50 is 21 µM.

For `O=C(Nc1ccc2c(c1)CCC2)C1Cc2ccccc2CN1C(=O)c1ccccc1` (configuration not stated), the IC50 is > 40 µM (inactive). With `CCc1ccc(S(=O)(=O)c2cn(CC(=O)Nc3ccccc3)c3ccccc3c2=O)cc1` the figure was > 40 µM (inactive); with `CC(C)Cc1ccc(-c2cc(-c3ccc(C(F)(F)F)cc3)c(C#N)c(=O)[nH]2)cc1`, 9.8 µM; with `O[C@H]1[C@H](NCc2cccc(C(F)(F)F)c2)[C@@H](c2cncnc2)C[C@H]1O`, > 40 µM (inactive). To `Cc1ccnc(NS(=O)(=O)c2ccc(NC(=O)c3ccc(S(=O)(=O)N(C)Cc4ccccc4)cc3)cc2)n1` belongs 35.4 µM; to `COc1ccc(Nc2nnc(Cc3ccc(Cl)cc3)c(=O)[nH]2)cc1`, 18.7 µM; to `COc1ccc(-c2noc(CC(=O)Nc3cccc(OC)c3)n2)cc1`, > 40 µM (inactive). With `Cc1ccc(NC(=O)Cc2nnc3c(-c4nc(C5CC5)no4)cccn23)cc1F` the figure was 31.5 µM; with `O=C(Nc1cc(F)c2nc(N3CCCC3)ccc2c1)c1ccco1`, > 40 µM (inactive). In the case of `c1cncc(-c2cnc3sc(NCc4ccc5c(c4)OCO5)nn23)c1`, the IC50 was > 40 µM (inactive). To `Cc1cc(=O)n(CC(=O)Nc2ccccc2C)c(Nc2ccc(F)cc2)n1` belongs 28.4 µM; to `Cc1ccc(NC(=O)c2nnn(CC(=O)Nc3cccc(C)c3C)c2N)cc1C`, 18.1 µM. With `COc1ccccc1N1CCN(C(=O)c2ccc3c(=O)n(CCc4ccccc4)c(=O)[nH]c3c2)CC1` the figure was > 40 µM (inactive); with `CCc1[nH]c(=O)cc2cc(OC)c(OC)cc12`, 2.97 µM. With `Cc1nc2c(-c3ccc(Cl)cc3)c[nH]n2c(=O)c1Cc1ccccc1` the figure was > 12.6 µM (inactive); with `O=C1CC(c2nc3ccccc3n2CCOc2ccc(Cl)cc2)CN1c1ccccc1` (configuration not stated), 39.3 µM. For `CCC1OC(O)(C(C)C(O)C(C)C2OC(=O)/C(C)=C/C(C)=CC(C)C(O)C(C)C/C(C)=C/C=C/C2OC)CC(OC(=O)/C=C/C(=O)NC2=C(O)CCC2=O)C1C` (configuration not stated), the IC50 was 16.6 µM. With `CCCn1c(=O)c2sccc2n2c(CCC(=O)N3CCc4ccccc4C3)nnc12` the figure was > 40 µM (inactive); with `CCn1c(SCC(=O)Nc2ccc(C)c(Cl)c2)nnc1-c1ccc2c(c1)OCCO2`, > 40 µM (inactive). Take `COCCCNC(=O)c1ccc(Cn2c(=O)c3ccccc3n(CC(=O)Nc3ccc4c(c3)OCCO4)c2=O)cc1`: the IC50 was > 40 µM (inactive). To `Cn1cc(-c2nc(C(=O)Nc3ccc(C#N)cc3)cs2)c2cccnc21` belongs > 40 µM (inactive).

With `CS(=O)(=O)NC1CCCN(C(=O)Nc2cccc3ccccc23)C1` (configuration not stated), the IC50 is > 40 µM (inactive). With `COc1ccc(OC)c(NC(=O)c2sc(-c3ccccc3)nc2C)c1` the figure was 37 µM; with `Cc1ccc(-n2cc(-c3noc(C(=O)Nc4ccc(F)cc4C)n3)nn2)cc1`, 10.1 µM.

Values taken from PubChem BioAssay AID1645863 (Buhrlage Lab, Dana-Farber Cancer Institute and Novartis …, 2021).
